Here are results for one molecule from publication PMC5800123, “Preparation and Optimisation of Cross-Linked Enzyme Aggregates Using Native Isolate White Rot Fungi Trametes versicolor and Fomes fomentarius for the Decolourisation of Synthetic Dyes” (International Journal of Environmental Research and Public …, 2017).

Test [1] relates to T1, free laccase from T. versicolor (TV).
T1 construct: gene LCC1
Conditions: read-out: Km Free Laccase; free enzyme from crude culture supernatant; ABTS 0.05-2.0 mM; general assay buffer 0.1 M sodium acetate pH 4.5.

The test system of test [2] is T2, free laccase from F. fomentarius (FF).
T2 construct: gene lac
Conditions: read-out: Km Free Laccase; free enzyme from crude culture supernatant; ABTS 0.05-2.0 mM; general assay buffer 0.1 M sodium acetate pH 4.5.

Take `CCn1c(=NN=c2sc3cc(S(=O)(=O)O)ccc3n2CC)sc2cc(S(=O)(=O)O)ccc21` [ABTS]: the Km in test [1] came to 1900 µM; in test [2], 87 µM.
